From patent US20230295200A1 (REGENTS OF THE UNIVERSITY OF MICHIGAN, priority 2022, published 2023)
pKi: −log10 of the molar value.

Biological target: T1, STAT6 protein (Homo sapiens, UniProt P42226)
T1 sequence (P42226 1-847): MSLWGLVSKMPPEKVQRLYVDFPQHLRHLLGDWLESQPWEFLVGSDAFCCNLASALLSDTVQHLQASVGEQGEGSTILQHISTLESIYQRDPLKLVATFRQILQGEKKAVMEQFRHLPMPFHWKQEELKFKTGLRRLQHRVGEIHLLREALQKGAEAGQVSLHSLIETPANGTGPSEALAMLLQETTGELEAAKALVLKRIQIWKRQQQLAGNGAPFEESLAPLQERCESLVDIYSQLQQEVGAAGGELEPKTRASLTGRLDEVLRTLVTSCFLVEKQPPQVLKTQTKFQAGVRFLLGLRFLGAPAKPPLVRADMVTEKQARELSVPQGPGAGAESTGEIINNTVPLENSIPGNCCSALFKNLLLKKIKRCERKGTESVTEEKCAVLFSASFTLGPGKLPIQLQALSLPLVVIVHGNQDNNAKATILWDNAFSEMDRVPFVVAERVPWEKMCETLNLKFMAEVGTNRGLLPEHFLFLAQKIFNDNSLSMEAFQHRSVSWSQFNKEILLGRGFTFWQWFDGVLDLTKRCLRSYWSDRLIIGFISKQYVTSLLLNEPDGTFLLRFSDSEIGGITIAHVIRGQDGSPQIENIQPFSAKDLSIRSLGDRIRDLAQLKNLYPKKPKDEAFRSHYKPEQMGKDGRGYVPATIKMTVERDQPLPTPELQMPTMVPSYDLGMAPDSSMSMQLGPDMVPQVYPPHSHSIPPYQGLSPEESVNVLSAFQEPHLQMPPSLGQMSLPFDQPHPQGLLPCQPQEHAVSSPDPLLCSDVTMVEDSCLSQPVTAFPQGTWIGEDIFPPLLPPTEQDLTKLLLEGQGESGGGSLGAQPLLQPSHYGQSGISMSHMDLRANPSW
Experiment: Fluorescence polarization (FP) binding assay, STAT6
Conditions: FP competition, 5 nM fluorescein-labeled tracer, 200 nM protein, PBS pH7.4; read-out: Binding STAT6
Method: Evaluation of the activity of the inhibitors may be accomplished by fluorescence polarization (FP) experiments. A representative general protocol is the following:
Fluorescence polarization (FP) experiments are performed in black round-bottom plates using the CLARIOstar microplate reader. To each well, fluorescein-labeled tracer and STAT5 or STAT6 protein are added in assay buffer. […] The inhibition constants are determined as the concentration of the STAT5 or STAT6 at which 50% of the ligand is bound.
Fluorescence polarization (FP) experiments were performed in 96-well, black round-bottom plates (Microfluor 2, Fisher Scientific) using the CLARIOstar microplate reader (BMG Labtech). To each well, 5 nM of fluoresceinlabeled tracer and 200 nM of STAT5 and/or STAT6 protein were added to a final volume of 100 μl in the assay buffer (PBS pH7.4+0.01% BGG+0.01% Tween-20, 2 mM DTT). The plate was mixed on a shaker for 15 m and incubated at room temperature for 1 h to reach equilibrium. […] All experimental data were analyzed using Prism 8.0 software (GraphPad Software), and the inhibition constants were determined by nonlinear curve fitting as the concentration of the STAT5 and/or STAT6 at which 50% of the ligand is bound.

pKi	Compound
5.00 to 6.00	CC(C)(C)[C@H](NC(=O)c1cc2cc(C(F)(F)P(=O)(O)O)ccc2s1)C(=O)N1CCC[C@H]1C(=O)N1CC(C(=O)O)CC(c2ccccc2)C1 (stereo partly drawn) [Compound 266, 1-(((S)-2-(5-(difluoro(phosphono)methyl)benzo [b]thiophene-2-carboxamido)-3,3-dimethylbutanoyl)-L-prolyl)-5-phenylpiperidine-3-carboxylic acid]
< 5.00	CC(C)C(=O)N1CC[C@H]2CC[C@@H](C(=O)N3CCc4ccccc4C3)N2C(=O)[C@@H](NC(=O)c2cc3cc(C(F)(F)P(=O)(O)O)ccc3[nH]2)C1 [Compound 364, (difluoro(2-(((5S,8S,10aR)-3-isobutyryl-6-oxo-8-(1,2,3,4-tetrahydroisoquinoline-2-carbonyl)decahydropyrrolo[1,2-a][1,5]diazocin-5-yl)carbamoyl)-1H-indol-5-yl)methyl)phosphonic acid]
6.00 to 7.00	CC(C)(C)[C@H](NC(=O)c1cc2cc(C(F)(F)P(=O)(O)O)ccc2s1)C(=O)N1Cc2ccccc2C[C@H]1C(=O)N1CCOC(Cc2ccccc2)C1 (stereo partly drawn) [Compound 221, ((2-(((2S)-1-((3S)-3-(2-benzylmorpholine-4-carbonyl)-3,4-dihydroisoquinolin-2(1H)-yl)-3,3-dimethyl-1-oxobutan-2-yl)carbamoyl)benzo[b]thiophen-5-yl)difluoromethyl)phosphonic acid]
6.00 to 7.00	CCCN(C(=O)[C@@H]1C[C@H](OCC(=O)OCC)CN1C(=O)[C@@H](NC(=O)c1cc2cc(C(F)(F)P(=O)(O)O)ccc2s1)C(C)(C)C)c1ccc(Br)cc1 [Compound 55, ((2-(((S)-1-((2S,4S)-2-((4-bromophenyl)(propyl)carbamoyl)-4-(2-ethoxy-2-oxoethoxy)pyrrolidin-1-yl)-3,3-dimethyl-1-oxobutan-2-yl)carbamoyl)benzo[b]thiophen-5-yl)difluoromethyl)phosphonic acid]
< 5.00	CC(=O)N1CC[C@H]2CC[C@@H](C(=O)N(c3ccc(Cl)cc3)C3CCCCC3)N2C(=O)[C@@H](NC(=O)c2cc3cc(C(F)(F)P(=O)(O)O)ccc3[nH]2)C1 [Compound 371, ((2-(((5S,8S,10aR)-3-acetyl-8-((4-chlorophenyl)(cyclohexyl)carbamoyl)-6-oxodecahydropyrrolo[1,2-a][1,5]diazocin-5-yl)carbamoyl)-1H-indol-5-yl)difluoromethyl)phosphonic acid]
5.00 to 6.00	CC(=O)N1CC[C@H]2CC[C@@H](C(=O)N(C)Cc3ccccc3)N2C(=O)[C@@H](NC(=O)c2cc3cc(C(F)(F)P(=O)(O)O)ccc3[nH]2)C1 [Compound 336, ((2-(((5S,8S,10aR)-3-acetyl-8-(benzyl(methyl)carbamoyl)-6-oxodecahydropyrrolo[1,2-a][1,5]diazocin-5-yl)carbamoyl)-1H-indol-5-yl)difluoromethyl)phosphonic acid]
6.00 to 7.00	O=C(N[C@@H](CC1CCN(CCCc2ccccc2)CC1)C(=O)N1CCC[C@H]1C(=O)N1CCO[C@H](c2ccccc2)C1)c1cc2cc(C(F)(F)P(=O)(O)O)ccc2s1 [Compound 297, (difluoro(2-(((S)-1-oxo-1-((S)-2-((R)-2-phenylmorpholine-4-carbonyl)pyrrolidin-1-yl)-3-(1-(3-phenylpropyl)piperidin-4-yl)propan-2-yl)carbamoyl)benzo[b]thiophen-5-yl)methyl)phosphonic acid]
6.00 to 7.00	CC(C)(C)[C@H](NC(=O)c1cc2cc(C(F)(F)P(=O)(O)O)ccc2s1)C(=O)N1C[C@H](OCC(=O)O)C[C@H]1C(=O)N(CCC(=O)O)c1ccc(Br)cc1 [Compound 50, 3-((2S,4R)-N-(4-bromophenyl)-4-(carboxymethoxy)-1-((S)-2-(5-(difluoro(phosphono)methyl)benzo[b]thiophene-2-carboxamido)-3,3-dimethylbutanoyl)pyrrolidine-2-carboxamido)propanoic acid]
5.00 to 6.00	CC1(c2ccc(Cl)cc2)CN(C(=O)[C@@H]2Cc3ccccc3CN2C(=O)[C@@H](NC(=O)c2cc3cc(C(F)(F)P(=O)(O)O)ccc3s2)C(C)(C)C)CCO1 (stereo partly drawn) [Compound 235, ((2-(((2S)-1-((3S)-3-(2-(4-chlorophenyl)-2-methylmorpholine-4-carbonyl)-3,4-dihydroisoquinolin-2(1H)-yl)-3,3-dimethyl-1-oxobutan-2-yl)carbamoyl)benzo[b]thiophen-5-yl)difluoromethyl)phosphonic acid]
6.00 to 7.00	CCN1CCC(C[C@H](NC(=O)c2cc3cc(C(F)(F)P(=O)(O)O)ccc3s2)C(=O)N2CCC[C@H]2C(=O)N2CCO[C@H](c3ccccc3)C2)CC1 [Compound 292, ((2-(((S)-3-(1-ethylpiperidin-4-yl)-1-oxo-1-((S)-2-((R)-2-phenylmorpholine-4-carbonyl)pyrrolidin-1-yl)propan-2-yl)carbamoyl)benzo[b]thiophen-5-yl)difluoromethyl)phosphonic acid]
6.00 to 7.00	O=C(N[C@@H](Cc1ccc(F)c(F)c1)C(=O)N1CCC[C@H]1C(=O)N1CCO[C@H](c2ccccc2)C1)c1cc2cc(C(F)(F)P(=O)(O)O)ccc2s1 [Compound 278, ((2-(((S)-3-(3,4-difluorophenyl)-1-oxo-1-((S)-2-((R)-2-phenylmorpholine-4-carbonyl)pyrrolidin-1-yl)propan-2-yl)carbamoyl)benzo[b]thiophen-5-yl)difluoromethyl)phosphonic acid]
5.00 to 6.00	CC1(c2ccc(F)cc2)CN(C(=O)[C@@H]2Cc3ccccc3CN2C(=O)[C@@H](NC(=O)c2cc3cc(C(F)(F)P(=O)(O)O)ccc3s2)C(C)(C)C)CCO1 (stereo partly drawn) [Compound 236, (difluoro(2-(((2S)-1-((3S)-3-(2-(4-fluorophenyl)-2-methylmorpholine-4-carbonyl)-3,4-dihydroisoquinolin-2(1H)-yl)-3,3-dimethyl-1-oxobutan-2-yl)carbamoyl)benzo[b]thiophen-5-yl)methyl)phosphonic acid]
< 5.00	CC(=O)N1CC[C@H]2CC[C@@H](C(=O)N(C)c3ccc(Cl)cc3)N2C(=O)[C@@H](NC(=O)c2cc3cc(C(F)(F)P(=O)(O)O)ccc3[nH]2)C1 [Compound 375, ((2-(((5S,8S,10aR)-3-acetyl-8-((4-chlorophenyl)(methyl)carbamoyl)-6-oxodecahydropyrrolo[1,2-a][1,5]diazocin-5-yl)carbamoyl)-1H-indol-5-yl)difluoromethyl)phosphonic acid]
5.00 to 6.00	CC(=O)N1CC[C@H]2CC[C@@H](C(=O)N(c3ccc(Cl)cc3)C(C)C)N2C(=O)[C@@H](NC(=O)c2cc3cc(C(F)(F)P(=O)(O)O)ccc3s2)C1 [Compound 389, ((2-(((5S,8S,10aR)-3-acetyl-8-((4-chlorophenyl)(isopropyl)carbamoyl)-6-oxodecahydropyrrolo[1,2-a][1,5]diazocin-5-yl)carbamoyl)benzo[b]thiophen-5-yl)difluoromethyl)phosphonic acid]
6.00 to 7.00	CNC(=O)CCN(C(=O)[C@@H]1C[C@@H](OCC(=O)NC)CN1C(=O)[C@@H](NC(=O)c1cc2cc(C(F)(F)P(=O)(O)O)ccc2s1)C(C)(C)C)c1ccc(Br)cc1 [Compound 52, ((2-(((S)-1-((2S,4R)-2-((4-bromophenyl)(3-(methylamino)-3-oxopropyl)carbamoyl)-4-(2-(methylamino)-2-oxoethoxy)pyrrolidin-1-yl)-3,3-dimethyl-1-oxobutan-2-yl)carbamoyl)benzo[b]thiophen-5-yl)difluoromethyl)phosphonic acid]
< 5.00	CC(=O)N1CC[C@H]2CC[C@@H](C(=O)Nc3ccccc3)N2C(=O)[C@@H](NC(=O)c2cc3cc(C(F)(F)P(=O)(O)O)ccc3[nH]2)C1 [Compound 361, ((2-(((5S,8S,10aR)-3-acetyl-6-oxo-8-(phenylcarbamoyl)decahydropyrrolo [1,2-a][1,5]diazocin-5-yl)carbamoyl)-1H-indol-5-yl)difluoromethyl)phosphonic acid]
< 5.00	CC(=O)N1CC[C@H]2CC[C@@H](C(=O)N3CCc4ccccc4CC3)N2C(=O)[C@@H](NC(=O)c2cc3cc(C(F)(F)P(=O)(O)O)ccc3[nH]2)C1 [Compound 374, ((2-(((5S,8S,10aR)-3-acetyl-6-oxo-8-(2,3,4,5-tetrahydro-1H-benzo[d]azepine-3-carbonyl)decahydropyrrolo[1,2-a][1,5]diazocin-5-yl)carbamoyl)-1H-indol-5-yl)difluoromethyl)phosphonic acid]
